Experimental data from patent publication US11925667B2, “Engineered therapeutic probiotic system and method” (priority 2018, dated 2024).
Like-named read-outs stand apart in the source and are kept apart here.

Legend:
[1] = tested on: HCT116 human colorectal carcinoma cells; assay: Cell toxicity assay (MTT), HCT116; type: cell-based; conditions: for Complete inhibition: HCT116 colorectal; for GI50: Homo sapiens, HCT-116, read-out: GI 50 value
Source text: (§1) Cell culture and toxicity assay. While HCT116 human colorectal carcinoma cells (ATCC, Manassas, USA), LoVo human colorectal adenocarcinoma cells (ATCC), AGS human gastric adenocarcinoma cells (ATCC), MCF7 human breast adenocarcinoma cells (ATCC), human esophageal smooth muscle primary cells (SMCs) (Cell Biologics, Chicago, USA) and CT26 mouse colorectal carcinoma cells (ATCC) are used according to the claimed invention, other illustrative cell lines may similarly be utilized. Cells are cleared of mycoplasma contamination prior to use using Mycoalert™ PLUS mycoplasma detection kit (Lonza). HCT116 cells are cultured in McCoy's 5A medium, LoVo and AGS cells in Ham's F12 medium, MCF7 cells in DMEM medium, CT26 cells in RPMI medium, and SMCs in the specific medium kit purchased from Cell Biologics. In this illustrative embodiment, unless otherwise stated all cell culture media are purchased from Lonza (Walkersville, USA) and are supplemented with antibiotics (penicillin/streptomycin) and 5% fetal bovine serum (FBS, v/v). SMCs are prepared according to the manufacturer's protocol. All cell cultures are maintained at 37° C. and 5% CO2. Cells are seeded in 96-well plates or on glass coverslips in 6-well plates at a density of 5×10^5/well and are cultured at 37° C. and 5% CO2 a day before protein-binding studies or co-culturing with transformed Nissle cells.
(§2) Cellular viability is measured at 3 hours, 24 hours and 72 hours post-treatment using the MTT assay (Sigma, St. Louis, USA). The inhibitory activity of myrosinase-converted AITC is performed by incubating cancer cells grown to 60% confluency with 0.1 μM of purified secreted I1 myrosinase with 0˜10 mM sinigrin at 37° C. and 5% CO2 and was sampled at 3 hours, 24 hours and 72 hours post-treatment. The MTT readout is fitted to a dose-response curve to determine the GI50 value (Eq. 2). Absorbance (570 nm)=Bottom+(Top−Bottom)/(1+10^(([Inhibitor]−Log 10 GI50))) (Eq. 2) HlpA binding assay. The HlpA gene sequence is optimized for E. coli expression, and the gene is cloned into a pET28b vector with an N-terminal GFP. GFP-HlpA and GFP are expressed using similar purification protocols, described above. […] Treated and adherent cells are washed with sterile PBS twice before staining with DAPI. The GFP/DAPI ratio is used to evaluate the binding ratio of protein binding per cell (Eq. 3). […] The cancer 394 cells are washed twice with 1×PBS and measured for DAPI and RFP emission. The fluorescence emission is compared on the linear standard curve of stained cells against the average fluorescence emission to determine the binding ratio of E. coli to cancer cells.

[2] = tested on: AGS human gastric adenocarcinoma cells; assay: Cell toxicity assay (MTT), AGS; type: cell-based; conditions: for Complete inhibition: AGS gastric; for GI50: Homo sapiens, read-out: GI 50 value
Source text: as §1, §2

[3] = tested on: CT26 mouse colorectal carcinoma cells; assay: Cell toxicity assay (MTT), CT26; type: cell-based; conditions: for Complete inhibition: CT26 colorectal; for GI50: Mus musculus, CT26, read-out: GI 50 value
Source text: as §1, §2

[4] = tested on: LoVo human colorectal adenocarcinoma cells; assay: Cell toxicity assay (MTT), LoVo; type: cell-based; conditions: for GI50: Homo sapiens, LoVo, read-out: GI 50 value; for Complete inhibition: LoVo colorectal
Source text: as §1, §2

[5] = tested on: MCF7 human breast adenocarcinoma cells; assay: Cell toxicity assay (MTT), MCF7; type: cell-based; conditions: for GI50: Homo sapiens, MCF7, read-out: GI 50 value; for Complete inhibition: MCF7 breast
Source text: as §1, §2

[6] = tested on: various colorectal, gastric and breast cancer cell lines; assay: Growth inhibition (MTT), summary over cancer cell lines; type: cell-based; conditions: read-out: 50% growth inhibition (GI50) values
Source text: (§3) Cell culture and toxicity assay. While HCT116 human colorectal carcinoma cells (ATCC, Manassas, USA), LoVo human colorectal adenocarcinoma cells (ATCC), AGS human gastric adenocarcinoma cells (ATCC), MCF7 human breast adenocarcinoma cells (ATCC), human esophageal smooth muscle primary cells (SMCs) (Cell Biologics, Chicago, USA) and CT26 mouse colorectal carcinoma cells (ATCC) are used according to the claimed invention, other illustrative cell lines may similarly be utilized. Cells are cleared of mycoplasma contamination prior to use using Mycoalert™ PLUS mycoplasma detection kit (Lonza). HCT116 cells are cultured in McCoy's 5A medium, LoVo and AGS cells in Ham's F12 medium, MCF7 cells in DMEM medium, CT26 cells in RPMI medium, and SMCs in the specific medium kit purchased from Cell Biologics. […]
(§4) The MTT readout is fitted to a dose-response curve to determine the GI50 value (Eq. 2). Absorbance (570 nm)=Bottom+(Top−Bottom)/(1+10^(([Inhibitor]−Log 10 GI50))) (Eq. 2) HlpA binding assay. […] The cancer 394 cells are washed twice with 1×PBS and measured for DAPI and RFP emission. The fluorescence emission is compared on the linear standard curve of stained cells against the average fluorescence emission to determine the binding ratio of E. coli to cancer cells.

[7] = tested on: various colorectal, gastric and breast cancer cell lines; assay: Growth inhibition in cancer cell lines; type: cell-based
Source text: as §3
as §4, with “Cellular viability is measured at 3 hours, 24 hours and 72 hours post-treatment using the MTT assay (Sigma, St. Louis, USA). […] The MTT” for “The MTT”

[8] = tested on: human esophageal smooth muscle primary cells (SMCs); assay: Cell toxicity assay (MTT), SMC; type: cell-based; conditions: for GI50: Homo sapiens, read-out: GI 50 value
Source text: as §1, with “CO2.” for “CO2. Cells are seeded in 96-well plates or on glass coverslips in 6-well plates at a density of 5×10^5/well and are cultured at 37° C. and 5% CO2 a day before protein-binding studies or co-culturing with transformed Nissle cells.”
The MTT readout is fitted to a dose-response curve to determine the GI50 value (Eq. 2). Absorbance (570 nm)=Bottom+(Top−Bottom)/(1+10^(([Inhibitor]−Log 10 GI50))) (Eq. 2) HlpA binding assay. The HlpA gene sequence is optimized for E. coli expression, and the gene is cloned into a pET28b vector with an N-terminal GFP. GFP-HlpA and GFP are expressed using similar purification protocols, described above. […] Treated and adherent cells are washed with sterile PBS twice before staining with DAPI. The GFP/DAPI ratio is used to evaluate the binding ratio of protein binding per cell (Eq. 3). Ratio (GFP/DAPI)=Bottom+(Top−Bottom)/(1+10^(([Ligand]−Log 10 KD))) (Eq. 3) Similarly, N-terminal INP tagged to HlpA are cloned into the pBbE8K vector and co390 transformed with pBbE8a-RFP into E. coli Nissle. E. coli cells are cultured in LB supplemented with 50 mg/L ampicillin and 25 mg/L kanamycin and are induced with 1% arabinose. […] The cancer 394 cells are washed twice with 1×PBS and measured for DAPI and RFP emission. The fluorescence emission is compared on the linear standard curve of stained cells against the average fluorescence emission to determine the binding ratio of E. coli to cancer cells.

[9] = tested on: primary stem cells or other non-cancer cell lines; conditions: in words; cited from earlier work
[10] = tested on: CT26 colorectal carcinoma cells; assay: Growth inhibition assay (MTT), CT26; type: cell-based, mouse
Source text: as §3
as §4, with “Cellular viability is measured at 3 hours, 24 hours and 72 hours post-treatment using the MTT assay (Sigma, St. Louis, USA). […] The MTT” for “The MTT”, “cancer cells. […]” for “cancer cells.”

[11] = tested on: HCT116 colorectal carcinoma cells; assay: Growth inhibition assay (MTT), HCT116; type: cell-based, human
Source text: as §3
as §4, with “Cellular viability is measured at 3 hours, 24 hours and 72 hours post-treatment using the MTT assay (Sigma, St. Louis, USA). […] The MTT” for “The MTT”, “cancer cells. […]” for “cancer cells.”

[12] = tested on: AGS gastric adenocarcinoma cells; assay: Growth inhibition assay (MTT), AGS; type: cell-based, human
Source text: as §3
as §4, with “Cellular viability is measured at 3 hours, 24 hours and 72 hours post-treatment using the MTT assay (Sigma, St. Louis, USA). […] The MTT” for “The MTT”, “cancer cells. […]” for “cancer cells.”

[13] = tested on: MCF7 breast adenocarcinoma cells; assay: Growth inhibition assay (MTT), MCF7; type: cell-based, human
Source text: as §3
as §4, with “Cellular viability is measured at 3 hours, 24 hours and 72 hours post-treatment using the MTT assay (Sigma, St. Louis, USA). […] The MTT” for “The MTT”, “cancer cells. […]” for “cancer cells.”

[14] = tested on: SMC (esophageal smooth muscle primary cells); assay: Growth inhibition assay (MTT), SMC; type: cell-based, human; conditions: purified YebF-I1 fusion protein and sinigrin, in words
Source text: as §3
as §4, with “Cellular viability is measured at 3 hours, 24 hours and 72 hours post-treatment using the MTT assay (Sigma, St. Louis, USA). […] The MTT” for “The MTT”, “cancer cells. […]” for “cancer cells.”

[15] = tested on: LoVo colorectal adenocarcinoma cells; assay: Growth inhibition assay (MTT), LoVo; type: cell-based, human
Source text: as §3
as §4, with “Cellular viability is measured at 3 hours, 24 hours and 72 hours post-treatment using the MTT assay (Sigma, St. Louis, USA). […] The MTT” for “The MTT”, “cancer cells. […]” for “cancer cells.”

LoVo = assay: HlpA binding assay (GFP/DAPI ratio), LoVo; conditions: LoVo human colorectal cell line
Procedure: as §2

HCT116 = assay: HlpA binding assay (GFP/DAPI ratio), HCT116; conditions: HCT116 human colorectal cell line
Procedure: as §2

smooth muscle cells = assay: HlpA binding assay (GFP/DAPI ratio), smooth muscle cells; set-up: species or system human
Procedure: as §2

[16] = tested on: gastric (AGS) cancer cell line; assay: HlpA binding assay (GFP/DAPI ratio), AGS; set-up: species or system human
Procedure: as §2

CT26 = assay: HlpA binding assay (GFP/DAPI ratio), CT26; conditions: CT26 murine colorectal cell line
Procedure: as §2

[17] = tested on: breast (MCF7) cancer cell line; assay: HlpA binding assay (GFP/DAPI ratio), MCF7; set-up: species or system human
Procedure: as §2

[18] = 0.1 μM purified secreted I1 myrosinase with sinigrin
[19] = Homo sapiens, 0.1 μM purified secreted I1 myrosinase with 0~10 mM sinigrin, read-out: GI 50 value

C=CCN=C=S [AITC, allyl isothiocyanate]
Complete inhibition [1]: <24 h | GI50 [1]: 116 µM | Complete inhibition [2]: <24 h | GI50 [2]: 18 µM | Complete inhibition [3]: <24 h | GI50 [3]: 15 µM | GI50 [4]: 74 µM | Complete inhibition [4]: <24 h | GI50 [5]: 104 µM | Complete inhibition [5]: <3 h | GI50 [6]: ~100 µM | Inhibition of cancer cell growth compared with L-sulforaphane ([7]; in words): poorer efficacy compared with L-sulforaphane | GI50 [8]: 589 µM | inhibition of primary smooth muscle cells [8]: does not inhibit

C[S@@+]([O-])CCCCN=C=S [L-sulforaphane]
Complete inhibition [1]: <24 h | GI50 [1]: 30 µM | Complete inhibition [2]: <24 h | GI50 [2]: 15 µM | Complete inhibition [3]: <24 h | GI50 [3]: 45 µM | GI50 [4]: 23 µM | Complete inhibition [4]: <24 h | GI50 [5]: 29 µM | Complete inhibition [5]: <3 h | GI50 ([6]; various colorectal, gastric and breast cancer cell lines): < 100 µM | Growth inhibition observed within ([7]; upon adding L-sulforaphane): ≤ 24 h | GI50 ([8]; SMC primary cells, MTT): 375 µM | inhibition of primary smooth muscle cells [8]: does not inhibit | Effect on primary stem cells or other non-cancer cell lines [9]: does not affect

C=CCN=C=S [YebF-I1-converted AITC, allyl isothiocyanate]
Complete inhibition [10, 18]: <24 h | GI50 ([10]; Mus musculus, 0.1 μM purified secreted I1 myrosinase with 0~10 mM sinigrin, read-out: GI 50 value): 46 µM | Complete inhibition [11, 18]: <24 h | GI50 ([11]; Homo sapiens, HCT-116, 0.1 μM purified secreted I1 myrosinase with 0~10 mM sinigrin, read-out: GI 50 value): 155 µM | Complete inhibition [12, 18]: <24 h | GI50 [12, 19]: 26 µM | Complete inhibition [13, 18]: <24 h | GI50 [13, 19]: 139 µM | Inhibition of primary smooth muscle cell line [14]: no inhibition | Complete inhibition [15, 18]: <21 h | GI50 [15, 19]: 232 µM

GFP-HlpA: purified N-terminal GFP-tagged Histone-like protein A (HlpA) from Streptococcus gallolyticus
binding affinity (LoVo): sub-micromolar | binding affinity (HCT116): sub-micromolar | weaker binding affinity relative to colorectal cell lines (smooth muscle cells): 6 fold | binding [16]: No binding | binding affinity (CT26): sub-micromolar | binding [17]: No binding
